Holding throughout (format): cell-based
One experiment relates to GOT3 and SA4 cell lines. Kind of experiment: High throughput drug sensitivity and resistance test, average over cell lines (anagrelide combination). The conditions noted are these: anagrelide combination, average of SA4 and GOT3; aDSS higher than 3.0 = synergy. The gist of the method: (§1)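 Compounds were plated in 10-fold dilutions spanning a 10,000-fold range, alone or with anagrelide (100 nM; SA4, GOT3) or BAY2666605 (40 nM; GIST882, SA4, GOT3). Viability was read by CellTiter-Glo after 72 h and normalized to DMSO and benzethonium chloride controls. Responses were expressed as DSS from four-parameter fits, and the single-agent DSS was subtracted from the combination DSS.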

Experiment [1] concerns GIST882, SA4, and GOT3 cell lines. Kind of experiment: Drug combination testing with concentration matrices, SynergyFinder 2.0 (all three cell lines). The conditions noted are these: drug concentration matrices and SynergyFinder 2.0, with or without Anagrelide. As for the experimental part: Drug combination testing with anagrelide and 12 selected drugs was performed as described above but with selected drugs using drug concentration matrices covering seven different concentrations with 3 replicate sample of each combinations and in two replicate assays. Synergy was assessed using an R package SynergyFinder 2.0 (Ianevski A, et al. 2020). The tool implements synergy scoring with four major reference models: HSA, Loewe, Bliss and ZIP models. The degree of a drug combination effect can be readily visualized as a synergy landscape map over the dose matrix and ZIP synergy score.

Experiment [2] deals with GIST882 cell line. Kind of experiment: High throughput drug sensitivity and resistance test (CellTiter-Glo, 72 hours). The conditions noted are these: drug combined with BAY2666605 (40 nM) minus drug alone. The gist of the method:
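GIST882 viability read by CellTiter-Glo after 72 h, normalized to 0.01% DMSO and 100 μmol/L benzethonium chloride. Compounds also combined with 40 nM BAY2666605. Four-parameter logistic curves; response as drug sensitivity score, with synergy as combination DSS minus single-agent DSS.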
Background: In ATP-based viability assays light output follows the ATP content of the culture.

In experiment [3] the test system is GOT3 cell line. The experiment is described as above. Conditions: GOT3. In a few lines:
as §1

In experiment [4] the test system is SA4 cell line. The experiment is described as above. The conditions noted are these: SA4. The gist of the method:
as §1

Experiment [5] concerns GOT3 cell line. Kind of experiment: Drug combination testing with concentration matrices, SynergyFinder 2.0. The conditions noted are these: combination with anagrelide, seven-concentration matrices. As for the experimental part: (§2) Drug combination testing with anagrelide and 12 selected drugs was performed as described above but with selected drugs using drug concentration matrices covering seven different concentrations with 3 replicate sample of each combinations and in two replicate assays. […] The tool implements synergy scoring with four major reference models: HSA, Loewe, Bliss and ZIP models. The degree of a drug combination effect can be readily visualized as a synergy landscape map over the dose matrix and ZIP synergy score.

The subject of experiment [6] is SA4 cell line. The experiment is described as above. The conditions noted are these: combination with anagrelide, seven-concentration matrices. As for the experimental part: as §2
Experiment [7] has as its system GIST882 cell line. Described as above. The conditions noted are these: combination with anagrelide, seven-concentration matrices. As for the experimental part:
as §2

Experiment [8] deals with GIST882, SA4 and GOT3 cell lines. As to the kind of experiment: Cell viability assay (96 well, CellTiter-Glo, 72 hours). As for the experimental part: Cell viability assay. Cells were plated on 96 Well White/Clear Tissue Culture Treated Plate (FALCON, 353377) 24 hours prior to medium change with drugs. Viabilities of cells in different treatments were evaluated 72 hours after treatment incubation with CellTiter-Glo® Luminescent Cell Viability Assay (G7572, Promega) following manufacturer's instruction. Reagent and cells stabilized to room temperature. Reagent added 100 μl/well, shaken for 2 minutes at room temperature and incubated for 10 min at room temperature before measuring the luminescence by using Hidex Sence microplate reader (Hidex oy). Growth medium was used to exclude background signal from the results.

The subject of experiment [9] is GIST882, GOT3 and SA4 cell lines. Kind of experiment: High throughput drug sensitivity and resistance test, average over cell lines (BAY2666605 combination). In a few lines:
as §1

Where [10] appears, read: drug combined with BAY2666605 (40 nM) minus drug alone.
Setting [11] is: drug combined with anagrelide hydrochloride (100 nM) minus drug alone.

Results on 1 molecule are retold here after US20250041294A1, “Synergistic compositions for use in the treatment of cancer” (Sartar Therapeutics Oy, priority 2021, published 2025).

As for `CC1(C)CCC(c2ccc(Cl)cc2)=C(CN2CCN(c3ccc(C(=O)NS(=O)(=O)c4ccc(N[C@H](CCN5CCOCC5)CSc5ccccc5)c(S(=O)(=O)C(F)(F)F)c4)cc3)CC2)C1` [Navitoclax, navitoclax], the “Average DSS (aDSS)” value with GOT3 and SA4 cell lines was determined as 10; in experiment [9] (BAY2666605 combination, average of GIST882, SA4 and GOT3, aDSS higher than 3.0 = synergy), 17.0. Moreover, the “efficacy in cell lines (in words)” value in [1] is given as “significant efficacy in cell lines only when they were administered with Anagrelide”. Moreover, in the experiment with GIST882 cell line [2], the “GIST882 cell line: DSS(combo (BAY2666605))-DSS(drug)” value was determined as 20.7. Besides, the “GOT3 cell line: DSS(combo (BAY2666605))-DSS(drug)” value in the experiment with GOT3 cell line [3] (setting [10]) is 1.7. Besides, the “GOT3 cell line: DSS(combo (anagrelide))-DSS(drug)” value with GOT3 cell line [3] (setting [11]) is 2.6. The “SA4 cell line: DSS(combo (BAY2666605))-DSS(drug)” value with SA4 cell line [4] (setting [10]) is recorded as 28.5. Further, in the experiment on SA4 cell line [4] (setting [11]), the “SA4 cell line: DSS(combo (anagrelide))-DSS(drug)” value was 17.4. In addition, the results for the “Average ZIP synergy score” value in the experiment on GOT3 cell line [5], with SA4 cell line [6] and in the experiment on GIST882 cell line [7] were 2.4, 8 and 11.7, respectively. Also, in experiment [8] (FIGS. 7-8), the “synergy with DNMDP (in words)” value is “showed synergy with DNMDP”. Besides, the “cell viability, combination result (in words)” value is on record as “verified the result” in [8] (treated together with 3-hydroxy-anagrelide, FIGS. 5 and 6); “verified the result” in experiment [8] (treated together with Anagrelide, FIGS. 3 and 4). The “synergy in high-throughput screening (in words)” value in experiment [9] (with anagrelide (GOT3, SA4) or BAY2666605 (GIST882, GOT3, SA4)) is listed as “synergistic”.
